Source: article PMC5218480 (PLoS ONE, 2017)

System: MV-4-11 cells
Assay: Gene expression microarray analysis (Affymetrix PrimeView) and GSEA
Type: cell-based, human
Parameters: RFU PODN (11730768_x_at) / Fold change /veh PODN (11730768_x_at) / RFU LINC00158 (11744669_a_at) / Fold change /veh LINC00158 (11744669_a_at) / RFU DUSP10 (11751237_a_at) / Fold change /veh DUSP10 (11751237_a_at) / RFU ID3 (11757404_x_at) / Fold change /veh ID3 (11757404_x_at) / RFU PLEKHG5 (11737974_s_at) / Fold change /veh PLEKHG5 (11737974_s_at) / RFU LRRC4B (11730491_at) / Fold change /veh LRRC4B (11730491_at) / RFU GIMAP4 (11747438_a_at) / Fold change /veh GIMAP4 (11747438_a_at) / RFU KRT8 (11758183_x_at) / Fold change /veh KRT8 (11758183_x_at) / RFU CNN1 (11734310_a_at) / Fold change /veh CNN1 (11734310_a_at) / RFU VPS37D (11726825_at) / Fold change /veh VPS37D (11726825_at) / RFU C10orf10 (11716522_x_at) / Fold change /veh C10orf10 (11716522_x_at) / RFU KIR2DL2 /// KIR2DL4 /// KIR2DL5A /// KIR2DL5B /// KIR2DS1 /// KIR2DS2 /// KIR2DS3 /// KIR2DS4 /// KIR3DL3 /// KIR3DL3 /// KIR3DS1 (11738374_at) / Fold change /veh KIR2DL2 /// KIR2DL4 /// KIR2DL5A /// KIR2DL5B /// KIR2DS1 /// KIR2DS2 /// KIR2DS3 /// KIR2DS4 /// KIR3DL3 /// KIR3DL3 /// KIR3DS1 (11738374_at) / RFU C1QL1 (11718748_at) / Fold change /veh C1QL1 (11718748_at) / RFU TMPRSS4 (11747572_a_at) / Fold change /veh TMPRSS4 (11747572_a_at) / RFU HAMP (11756126_x_at) / Fold change /veh HAMP (11756126_x_at) / RFU RNFT2 (11725882_a_at) / Fold change /veh RNFT2 (11725882_a_at) / RFU NR4A2 (11747474_a_at) / Fold change /veh NR4A2 (11747474_a_at) / RFU ABCC12 (11746883_a_at) / Fold change /veh ABCC12 (11746883_a_at) / RFU TMEM136 (11760407_x_at) / Fold change /veh TMEM136 (11760407_x_at) / RFU CLDN22 /// WWC2 (11732394_at) / Fold change /veh CLDN22 /// WWC2 (11732394_at) / RFU HLA-DPB1 (11760878_x_at) / Fold change /veh HLA-DPB1 (11760878_x_at) / RFU SPINT1 (11716480_a_at) / Fold change /veh SPINT1 (11716480_a_at) / RFU GAP43 (11754022_s_at) / Fold change /veh GAP43 (11754022_s_at) / RFU A4GNT (11735810_at) / Fold change /veh A4GNT (11735810_at) / RFU PRB3 (11715151_x_at) / Fold change /veh PRB3 (11715151_x_at) / RFU TUBB4B (11761932_at) / Fold change /veh TUBB4B (11761932_at) / RFU CAPN14 (11732068_a_at) / Fold change /veh CAPN14 (11732068_a_at) / RFU TMCC2 (11721928_a_at) / Fold change /veh TMCC2 (11721928_a_at) / RFU IRGQ (11745062_a_at) / Fold change /veh IRGQ (11745062_a_at) / RFU FAM174B (11720279_a_at) / Fold change /veh FAM174B (11720279_a_at) / RFU TMPRSS4 (11748680_a_at) / Fold change /veh TMPRSS4 (11748680_a_at) / RFU FAM212B (11763350_a_at) / Fold change /veh FAM212B (11763350_a_at) / RFU PLEKHG5 (11743358_a_at) / Fold change /veh PLEKHG5 (11743358_a_at) / RFU ZSCAN30 (11745921_a_at) / Fold change /veh ZSCAN30 (11745921_a_at) / RFU CMKLR1 (11741424_a_at) / Fold change /veh CMKLR1 (11741424_a_at) / RFU LOC101060620 /// MAPK8IP1 (11723275_at) / Fold change /veh LOC101060620 /// MAPK8IP1 (11723275_at) / RFU SPTSSB (11747773_x_at) / Fold change /veh SPTSSB (11747773_x_at) / RFU PRSS12 (11739890_at) / Fold change /veh PRSS12 (11739890_at) / RFU BIN1 (11741810_x_at) / Fold change /veh BIN1 (11741810_x_at) / RFU WNT11 (11732464_a_at) / Fold change /veh WNT11 (11732464_a_at) / RFU C10orf10 (11716521_a_at) / Fold change /veh C10orf10 (11716521_a_at) / RFU C5orf56 (11738089_at) / Fold change /veh C5orf56 (11738089_at) / RFU CYB561 (11721691_x_at) / Fold change /veh CYB561 (11721691_x_at) / RFU ANKRD19P (11752326_a_at) / Fold change /veh ANKRD19P (11752326_a_at) / RFU OR2T12 /// OR2T33 /// OR2T8 (11738714_s_at) / Fold change /veh OR2T12 /// OR2T33 /// OR2T8 (11738714_s_at) / RFU VCAN (11748164_a_at) / Fold change /veh VCAN (11748164_a_at) / RFU JSRP1 (11732532_at) / Fold change /veh JSRP1 (11732532_at) / RFU KRTAP10-11 (11738290_x_at) / Fold change /veh KRTAP10-11 (11738290_x_at) / RFU MYO3A (11730013_a_at) / Fold change /veh MYO3A (11730013_a_at) / RFU EBF3 (11725865_a_at) / Fold change /veh EBF3 (11725865_a_at) / RFU CAMK2N1 (11719241_x_at) / Fold change /veh CAMK2N1 (11719241_x_at) / RFU C5orf56 (11738088_a_at) / Fold change /veh C5orf56 (11738088_a_at) / RFU OLFML3 (11715873_a_at) / Fold change /veh OLFML3 (11715873_a_at) / RFU LOC100653217 /// NTM (11731650_a_at) / Fold change /veh LOC100653217 /// NTM (11731650_a_at) / RFU MAPK11 (11762145_a_at) / Fold change /veh MAPK11 (11762145_a_at) / RFU FIZ1 (11724087_x_at) / Fold change /veh FIZ1 (11724087_x_at) / RFU OASL (11726364_x_at) / Fold change /veh OASL (11726364_x_at) / RFU SOX15 (11748057_x_at) / Fold change /veh SOX15 (11748057_x_at) / RFU CD79A (11719716_a_at) / Fold change /veh CD79A (11719716_a_at) / RFU HIST1H1D (11736915_at) / Fold change /veh HIST1H1D (11736915_at) / RFU CASKIN2 (11723855_a_at) / Fold change /veh CASKIN2 (11723855_a_at) / RFU LOC730098 (11760151_x_at) / Fold change /veh LOC730098 (11760151_x_at) / RFU OR4N2 (11742367_at) / Fold change /veh OR4N2 (11742367_at) / RFU PRRT2 (11749266_a_at) / Fold change /veh PRRT2 (11749266_a_at) / RFU SNX32 (11753110_a_at) / Fold change /veh SNX32 (11753110_a_at) / RFU CDHR5 (11726645_a_at) / Fold change /veh CDHR5 (11726645_a_at) / RFU RCAN1 (11760418_a_at) / Fold change /veh RCAN1 (11760418_a_at) / RFU FAM167A (11723789_a_at) / Fold change /veh FAM167A (11723789_a_at) / RFU FAM26E (11764081_at) / Fold change /veh FAM26E (11764081_at) / RFU ISYNA1 (11749810_s_at) / Fold change /veh ISYNA1 (11749810_s_at) / RFU ACY1 (11761880_at) / Fold change /veh ACY1 (11761880_at) / RFU 11764098_at / Fold change /veh 11764098_at / RFU SAMD14 (11745864_x_at) / Fold change /veh SAMD14 (11745864_x_at) / RFU NPB (11741838_a_at) / Fold change /veh NPB (11741838_a_at) / RFU TMPRSS6 (11731388_a_at) / Fold change /veh TMPRSS6 (11731388_a_at) / RFU KRTAP10-2 (11738614_at) / Fold change /veh KRTAP10-2 (11738614_at) / RFU ARHGAP8 /// PRR5-ARHGAP8 (11727945_x_at) / Fold change /veh ARHGAP8 /// PRR5-ARHGAP8 (11727945_x_at) / RFU KRTAP5-7 /// NADSYN1 (11734609_at) / Fold change /veh KRTAP5-7 /// NADSYN1 (11734609_at) / RFU RASL12 (11751679_a_at) / Fold change /veh RASL12 (11751679_a_at) / RFU CDKN2B (11736163_a_at) / Fold change /veh CDKN2B (11736163_a_at) / RFU PRF1 (11729649_at) / Fold change /veh PRF1 (11729649_at) / RFU, ZNF638 /// ZNF638-IT1 / Fold change vs veh, ZNF638 /// ZNF638-IT1 / RFU, PANK3 / Fold change vs veh, PANK3 / RFU, SH3YL1 / Fold change vs veh, SH3YL1 / RFU, ZEB2 / Fold change vs veh, ZEB2 / RFU, NRIP1 / Fold change vs veh, NRIP1 / RFU, PTTG1IP / Fold change vs veh, PTTG1IP / RFU, CAPN2 / Fold change vs veh, CAPN2 / RFU, MED14 / Fold change vs veh, MED14 / RFU, SNORA58 / Fold change vs veh, SNORA58 / RFU, C1orf63 / Fold change vs veh, C1orf63 / RFU, LRRFIP1 / Fold change vs veh, LRRFIP1 / RFU, NDUFAF7 / Fold change vs veh, NDUFAF7 / RFU, SLC12A2 / Fold change vs veh, SLC12A2 / RFU, IBTK / Fold change vs veh, IBTK / RFU, ESF1 / Fold change vs veh, ESF1 / Fold change vs veh, TMEM50B / RFU, TAOK1 / Fold change vs veh, TAOK1 / RFU, ACBD3 / Fold change vs veh, ACBD3 / RFU, TMA16 / Fold change vs veh, TMA16 / RFU, RWDD3 / Fold change vs veh, RWDD3 / RFU, BCAT1 / Fold change vs veh, BCAT1 / RFU, EDEM3 / Fold change vs veh, EDEM3 / RFU, TMEM33 / Fold change vs veh, TMEM33 / RFU, WDR75 / Fold change vs veh, WDR75 / RFU, AHCTF1 / Fold change vs veh, AHCTF1 / RFU, TFRC / Fold change vs veh, TFRC / RFU, ZDHHC17 / Fold change vs veh, ZDHHC17 / RFU, NOM1 / Fold change vs veh, NOM1 / RFU, ARL8B / Fold change vs veh, ARL8B / RFU, ZBTB11 / Fold change vs veh, ZBTB11 / RFU, TAMM41 / Fold change vs veh, TAMM41 / RFU, KIAA1704 /// LOC100996395 / Fold change vs veh, KIAA1704 /// LOC100996395 / RFU, ING1 / Fold change vs veh, ING1 / RFU, TRMT61B / Fold change vs veh, TRMT61B / RFU, FUBP3 / Fold change vs veh, FUBP3 / RFU, TP53 / Fold change vs veh, TP53 / RFU, TNKS2 / Fold change vs veh, TNKS2 / RFU, ZFP14 / Fold change vs veh, ZFP14 / RFU, ACTR2 / Fold change vs veh, ACTR2 / RFU, PPP3R1 / Fold change vs veh, PPP3R1 / RFU, PIK3R1 / Fold change vs veh, PIK3R1 / RFU, HNRNPA1 / Fold change vs veh, HNRNPA1 / RFU, RNF170 / Fold change vs veh, RNF170 / RFU, ZNF28 / Fold change vs veh, ZNF28 / RFU, RNGTT / Fold change vs veh, RNGTT / RFU, OGT / Fold change vs veh, OGT / RFU, BRD1 / Fold change vs veh, BRD1 / RFU, MARS / Fold change vs veh, MARS / RFU, ZNF655 / Fold change vs veh, ZNF655 / RFU, FAHD1 / Fold change vs veh, FAHD1 / RFU, BDP1 / Fold change vs veh, BDP1 / RFU, LRRCC1 / Fold change vs veh, LRRCC1 / RFU, ARID1A / Fold change vs veh, ARID1A / RFU, ZNF146 / Fold change vs veh, ZNF146 / RFU, ZNF330 / Fold change vs veh, ZNF330 / RFU, GPN3 / Fold change vs veh, GPN3 / RFU, C9orf123 / Fold change vs veh, C9orf123 / RFU, N4BP2L2 / Fold change vs veh, N4BP2L2 / RFU, ARFIP1 / Fold change vs veh, ARFIP1 / RFU, FAM179B / Fold change vs veh, FAM179B / RFU, BCL10 / Fold change vs veh, BCL10 / RFU, UHRF1BP1L / Fold change vs veh, UHRF1BP1L / RFU, BET1 / Fold change vs veh, BET1 / RFU, CNOT2 / Fold change vs veh, CNOT2 / RFU, ZNF268 / Fold change vs veh, ZNF268 / Fold change vs veh, ZNF507 / RFU, DGCR2 / Fold change vs veh, DGCR2 / RFU, WDSUB1 / Fold change vs veh, WDSUB1 / Fold change vs veh, HSP90B1 /// MIR3652 / RFU, ADSS / Fold change vs veh, ADSS / RFU, GK / Fold change vs veh, GK / RFU, ZNF148 / Fold change vs veh, ZNF148 / RFU, TAF9 / Fold change vs veh, TAF9 / RFU, SLC1A5 / Fold change vs veh, SLC1A5 / RFU, SLMO2 / Fold change vs veh, SLMO2 / RFU, ABCC4 / Fold change vs veh, ABCC4 / RFU, LOC101060439 /// RAP1B / Fold change vs veh, LOC101060439 /// RAP1B / RFU, RFX7 / Fold change vs veh, RFX7 / RFU, GTPBP10 / Fold change vs veh, GTPBP10 / RFU, CNEP1R1 / Fold change vs veh, CNEP1R1 / RFU, BIVM-ERCC5 /// ERCC5 / Fold change vs veh, BIVM-ERCC5 /// ERCC5 / RFU, ILF3 / Fold change vs veh, ILF3 / RFU 11762660_at / Fold change /veh 11762660_at / RFU VCAN (11757783_s_at) / Fold change /veh VCAN (11757783_s_at) / RFU DDX43 (11728927_at) / Fold change /veh DDX43 (11728927_at) / RFU KRT8 (11758188_x_at) / Fold change /veh KRT8 (11758188_x_at) / RFU NKD1 (11759106_at) / Fold change /veh NKD1 (11759106_at) / RFU SRD5A1 (11742802_a_at) / Fold change /veh SRD5A1 (11742802_a_at) / RFU TPSAB1 /// TPSB2 (11721975_s_at) / Fold change /veh TPSAB1 /// TPSB2 (11721975_s_at) / RFU GSTM3 (11746129_a_at) / Fold change /veh GSTM3 (11746129_a_at) / RFU IL23R (11737362_x_at) / Fold change /veh IL23R (11737362_x_at) / RFU TMEM51 (11727254_a_at) / Fold change /veh TMEM51 (11727254_a_at) / RFU PIWIL2 (11732686_x_at) / Fold change /veh PIWIL2 (11732686_x_at) / RFU ORM1 (11744905_x_at) / Fold change /veh ORM1 (11744905_x_at) / RFU CCDC152 (11743942_at) / Fold change /veh CCDC152 (11743942_at) / RFU ECM1 (11717891_a_at) / Fold change /veh ECM1 (11717891_a_at) / RFU IL23R (11748794_a_at) / Fold change /veh IL23R (11748794_a_at) / RFU TNFAIP8L3 (11732012_x_at) / Fold change /veh TNFAIP8L3 (11732012_x_at) / RFU MBOAT4 (11741988_at) / Fold change /veh MBOAT4 (11741988_at) / RFU 11764193_at / Fold change /veh 11764193_at / RFU TMEM53 (11763286_at) / Fold change /veh TMEM53 (11763286_at) / RFU MAGEB2 (11727129_at) / Fold change /veh MAGEB2 (11727129_at) / RFU TMEM200A (11744735_a_at) / Fold change /veh TMEM200A (11744735_a_at) / RFU CCDC152 (11751479_a_at) / Fold change /veh CCDC152 (11751479_a_at) / RFU FAM211A (11726209_a_at) / Fold change /veh FAM211A (11726209_a_at) / RFU RGS16 (11746705_a_at) / Fold change /veh RGS16 (11746705_a_at) / RFU VCAN (11755009_s_at) / Fold change /veh VCAN (11755009_s_at) / RFU RHOB (11743442_s_at) / Fold change /veh RHOB (11743442_s_at) / RFU RGS16 (11720943_a_at) / Fold change /veh RGS16 (11720943_a_at) / RFU RGS16 (11720944_at) / Fold change /veh RGS16 (11720944_at) / RFU, VPS4B / Fold change vs veh, VPS4B / RFU, CREB1 / Fold change vs veh, CREB1 / RFU, DNAJC13 / Fold change vs veh, DNAJC13 / RFU, GNAQ / Fold change vs veh, GNAQ / RFU, CDK5R1 / Fold change vs veh, CDK5R1 / RFU, ZRANB3 / Fold change vs veh, ZRANB3 / RFU, CUL4A / Fold change vs veh, CUL4A / RFU, CCNY / Fold change vs veh, CCNY / RFU, UFL1 / Fold change vs veh, UFL1 / RFU, COG3 / Fold change vs veh, COG3 / RFU, DIAPH2 / Fold change vs veh, DIAPH2 / RFU, SKA2 / Fold change vs veh, SKA2 / RFU, AFF3 / Fold change vs veh, AFF3 / RFU, LMF1 / Fold change vs veh, LMF1 / RFU, IPO11 / Fold change vs veh, IPO11 / RFU, DFFB / Fold change vs veh, DFFB / RFU, FOXP1 / Fold change vs veh, FOXP1 / RFU, CARD8 / Fold change vs veh, CARD8 / RFU, STRN3 / Fold change vs veh, STRN3 / RFU, ADK / Fold change vs veh, ADK / RFU, RASSF2 / Fold change vs veh, RASSF2 / RFU, WIPF1 / Fold change vs veh, WIPF1 / RFU, LARP1B / Fold change vs veh, LARP1B / RFU, RASA1 / Fold change vs veh, RASA1 / RFU, RB1 / Fold change vs veh, RB1 / RFU, PPFIA1 / Fold change vs veh, PPFIA1 / RFU, MAT2A / Fold change vs veh, MAT2A / RFU, CCT5 / Fold change vs veh, CCT5 / RFU, WDR92 / Fold change vs veh, WDR92 / RFU, CUX1 / Fold change vs veh, CUX1 / RFU, TTC7A / Fold change vs veh, TTC7A / RFU, TMEM135 / Fold change vs veh, TMEM135 / RFU, DEPTOR / Fold change vs veh, DEPTOR / RFU, CPM / Fold change vs veh, CPM / RFU, DNAJB6 / Fold change vs veh, DNAJB6 / RFU, CACNA2D3 / Fold change vs veh, CACNA2D3 / RFU, DTX4 / Fold change vs veh, DTX4 / RFU, TFCP2 / Fold change vs veh, TFCP2 / RFU, GMCL1 /// GMCL1P1 / Fold change vs veh, GMCL1 /// GMCL1P1 / RFU, AEBP2 / Fold change vs veh, AEBP2 / RFU, SNHG1 /// SNORD22 /// SNORD25 /// SNORD26 /// SNORD27 /// SNORD28 /// SNORD29 /// SNORD31 / Fold change vs veh, SNHG1 /// SNORD22 /// SNORD25 /// SNORD26 /// SNORD27 /// SNORD28 /// SNORD29 /// SNORD31 / Fold change (Aza/veh), C12orf56 (ProbeSet 11735607_a_at) / Fold change (ACY-1035/veh), C12orf56 (ProbeSet 11735607_a_at) / Fold change (Aza/veh), FGFR1OP (ProbeSet 11751329_s_at) / Fold change (ACY-1035/veh), FGFR1OP (ProbeSet 11751329_s_at) / Fold change (Aza/veh), VPS36 (ProbeSet 11739960_a_at) / Fold change (ACY-1035/veh), VPS36 (ProbeSet 11739960_a_at) / RFU SYPL1 (11715823_x_at) / Fold change /veh SYPL1 (11715823_x_at) / RFU IGFBP7 (11715501_s_at) / Fold change /veh IGFBP7 (11715501_s_at) / RFU REEP3 (11722064_at) / Fold change /veh REEP3 (11722064_at) / RFU IGLL1 (11728026_x_at) / Fold change /veh IGLL1 (11728026_x_at): dose or concentration left out as unconfirmed
Details: MV-4-11 cells, 48 hours

With `Nc1ccc(-c2cccs2)cc1NC(=O)c1ccc2c(c1)cc(C1CC1)n2CCN1CCOCC1` [ACY-1035] the “RFU ACY1 (11761880_at)” value was 20.30 RFU.
